Results on one compound are retold here after PMC12041525, “Mechanistic studies of mycobacterial glycolipid biosynthesis by the mannosyltransferase PimE” (Nature Communications, 2025).

The experiment has as its target T1, MaPimE (Mycobacteroides abscessus, UniProt A0ABD7HTP3).
T1 construct: gene D2E76_03800; full-length WT, His-tagged, pNYCOMPSC23, E. coli BL21(DE3) pLysS; membrane fraction (kinetics) or DDM-purified in MSP1E3D1/POPC nanodiscs with Fab-E6 (cryo-EM); 46 kDa
Nature of the experiment: cryo-EM structure of the complex, […] Å. In kind it is binding. Particulars: nanodisc, Fab-E6 bound; formed from added PPM; only first three prenyl units resolved.

T1 sequence (A0ABD7HTP3 entry or part of it): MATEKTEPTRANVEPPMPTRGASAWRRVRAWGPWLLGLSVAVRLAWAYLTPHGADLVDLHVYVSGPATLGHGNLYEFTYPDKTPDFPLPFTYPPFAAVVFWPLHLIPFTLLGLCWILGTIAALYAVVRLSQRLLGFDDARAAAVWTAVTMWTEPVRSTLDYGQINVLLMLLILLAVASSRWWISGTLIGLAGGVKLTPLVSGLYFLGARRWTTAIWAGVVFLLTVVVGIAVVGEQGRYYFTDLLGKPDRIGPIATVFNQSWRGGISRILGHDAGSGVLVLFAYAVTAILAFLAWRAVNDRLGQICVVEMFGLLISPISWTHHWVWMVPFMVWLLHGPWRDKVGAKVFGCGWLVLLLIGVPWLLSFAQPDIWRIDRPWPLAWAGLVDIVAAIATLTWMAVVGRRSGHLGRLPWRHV

With `CC(C)=CCC/C(C)=C/CC/C(C)=C\CC/C(C)=C\CC/C(C)=C\CC/C(C)=C\CC/C(C)=C\CC/C(C)=C\CC/C(C)=C\CC/C(C)=C\COP(=O)(O)O` [PP, polyprenyl phosphate], the “cryo-EM structure of the complex, 3.5 Å” value is “led us to interpret it as the PP portion of the PPM donor”.
